Patent US11559530B2, “Oral testosterone undecanoate therapy” (Lipocine Inc., priority 2016, dated 2023)

Experiment: Clinical study of oral TU testosterone therapy in hypogonadal males: serum testosterone Cavg and Cmax responder analysis
Assay type: in vivo, human
Settings: for Cavg >300 ng/dL ≥75% patients / Cavg >300 ng/dL ≥80% patients / Cmax > 1500 ng/dL <15% patients / Cmax > 1500 ng/dL <20% patients / Cmax > 1800 ng/dL <5% patients / Cmax > 1800 ng/dL <10% patients / Cmax > 2500 ng/dL <2% patients / Cmax > 2500 ng/dL none of patients: with food
Procedure: The dosage form from Example B of Composition 4 with dosing regimen (Regimen #9-16) of dosing category BID-equal dose with daily dose range 150-600 mg were used for a Clinic Study of Testosterone Therapy for hypogonadal males.
The clinical study was a randomized double-blind, placebo-controlled dose escalating study of the safety, efficacy, tolerability, and pharmacokinetics of testosterone therapy in hypogonadal males. This clinic study was a single and multiple, ascending-dose study that was designed to determine the optimal starting, titration (if appropriate), or single fixed dose for safety and efficacy targeted by the US FDA. The study also verified the time for testosterone levels to reach steady state and identified a suitable fixed dose dosing regimen that satisfies an unmet need for safety and efficacy for oral TT.
This study was carried out with conditions of a single-center, randomized, double-blind, placebo-controlled, ascending multiple-dose, and serial-group in adult hypogonadal male subjects. The objectives of this study were: • a) To assess the safety, efficacy, and tolerability of escalating single and multiple oral doses of TU dosage forms in hypogonadal males • b) To determine the pharmacokinetics (PK) of testosterone (T), DHT, TU, DHTU, and estradiol (E2) after single and multiple oral doses of TU dosage forms in hypogonadal males • C) To identify a fixed dose dosing regimen satisfying US FDA targets, without needing to titrate, for restoring serum T levels in hypogonadal males to the normal T range.
The dosing regimen for this clinical study ranged from 150 mg daily dose (75 mg BID dose) to 600 mg daily dose (300 mg BID dose). Observed pharmacokinetic parameters (T, DHT, TU, DHTU, and E2) after single and multiple oral doses of TU dosage forms in the patients were recorded in connection with each daily dose listed in the report.
The overall analyzed results of this clinical study were plotted according to % of patients for safety (Cmax<1,500 ng/dL) and efficacy (Cavg>300 ng/dL) with a variety of dosing regimens. Note that only doses that were multiples of 75 mg were tested in the clinical study, the results predicted for the other doses are estimated from these values.

[1] = Regimen #1, TID-equal dose, TU 75/75/75 mg
[2] = Regimen #2, TID-equal dose, TU 112/112/112 mg
[3] = Regimen #3, TID-equal dose, TU 125/125/125 mg
[4] = Regimen #4, TID-equal dose, TU 150/150/150 mg
[5] = Regimen #5, TID-equal dose, TU 188/188/188 mg
[6] = Regimen #6, TID-equal dose, TU 225/225/225 mg
[7] = Regimen #7, TID-equal dose, TU 237/237/237 mg
[8] = Regimen #8, TID-equal dose, TU 250/250/250 mg
[9] = Regimen #9, BID-equal dose (AM/PM), TU 75/75 mg
[10] = Regimen #10, BID-equal dose (AM/PM), TU 150/150 mg
[11] = Regimen #11, BID-equal dose (AM/PM), TU 215/215 mg
[12] = Regimen #12, BID-equal dose (AM/PM), TU 225/225 mg
[13] = Regimen #13, BID-equal dose (AM/PM), TU 237/237 mg
[14] = Regimen #14, BID-equal dose (AM/PM), TU 250/250 mg
[15] = Regimen #15, BID-equal dose (AM/PM), TU 265/265 mg
[16] = Regimen #16, BID-equal dose (AM/PM), TU 300/300 mg
[17] = Regimen #17, BID-different dose (AM/PM), TU 75/225 mg
[18] = Regimen #18, BID-different dose (AM/PM), TU 75/300 mg
[19] = Regimen #19, BID-different dose (AM/PM), TU 150/225 mg
[20] = Regimen #20, BID-different dose (AM/PM), TU 225/150 mg
[21] = Regimen #21, BID-different dose (AM/PM), TU 225/300 mg
[22] = Regimen #22, BID-different dose (AM/PM), TU 300/75 mg
[23] = Regimen #23, BID-different dose (AM/PM), TU 300/150 mg
[24] = Regimen #24, BID-different dose (AM/PM), TU 300/225 mg

## CCCCCCCCCCC(=O)O[C@H]1CC[C@H]2[C@@H]3CCC4=CC(=O)CC[C@]4(C)[C@H]3CC[C@]12C [TU, testosterone undecanoate]
[1]
  Cavg >300 ng/dL ≥75% patients: No
  Cavg >300 ng/dL ≥80% patients: No
[2]
  Cavg >300 ng/dL ≥75% patients: No
  Cavg >300 ng/dL ≥80% patients: No
[3]
  Cavg >300 ng/dL ≥75% patients: No
  Cavg >300 ng/dL ≥80% patients: No
[4]
  Cavg >300 ng/dL ≥75% patients: Yes
  Cavg >300 ng/dL ≥80% patients: Yes
[5]
  Cavg >300 ng/dL ≥75% patients: Yes
  Cavg >300 ng/dL ≥80% patients: Yes
[6]
  Cavg >300 ng/dL ≥75% patients: Yes
  Cavg >300 ng/dL ≥80% patients: Yes
  Cmax > 1500 ng/dL <15% patients: No
  Cmax > 1500 ng/dL <20% patients: Yes
  Cmax > 1800 ng/dL <5% patients: No
  Cmax > 1800 ng/dL <10% patients: Yes
  Cmax > 2500 ng/dL <2% patients: Yes
  Cmax > 2500 ng/dL none of patients: No
[7]
  Cavg >300 ng/dL ≥75% patients: Yes
  Cavg >300 ng/dL ≥80% patients: Yes
  Cmax > 1500 ng/dL <15% patients: No
  Cmax > 1500 ng/dL <20% patients: Yes
  Cmax > 1800 ng/dL <5% patients: No
  Cmax > 1800 ng/dL <10% patients: Yes
  Cmax > 2500 ng/dL <2% patients: No
  Cmax > 2500 ng/dL none of patients: No
[8]
  Cavg >300 ng/dL ≥75% patients: Yes
  Cavg >300 ng/dL ≥80% patients: Yes
  Cmax > 1500 ng/dL <15% patients: No
  Cmax > 1500 ng/dL <20% patients: No
  Cmax > 1800 ng/dL <5% patients: No
  Cmax > 1800 ng/dL <10% patients: No
  Cmax > 2500 ng/dL <2% patients: No
  Cmax > 2500 ng/dL none of patients: No
[9]
  Cavg >300 ng/dL ≥75% patients: No
  Cavg >300 ng/dL ≥80% patients: No
  Cmax > 1500 ng/dL <15% patients: Yes
  Cmax > 1500 ng/dL <20% patients: Yes
  Cmax > 1800 ng/dL <5% patients: Yes
  Cmax > 1800 ng/dL <10% patients: Yes
  Cmax > 2500 ng/dL <2% patients: Yes
  Cmax > 2500 ng/dL none of patients: Yes
[10]
  Cavg >300 ng/dL ≥75% patients: No
  Cavg >300 ng/dL ≥80% patients: No
  Cmax > 1500 ng/dL <15% patients: Yes
  Cmax > 1500 ng/dL <20% patients: Yes
  Cmax > 1800 ng/dL <5% patients: Yes
  Cmax > 1800 ng/dL <10% patients: Yes
  Cmax > 2500 ng/dL <2% patients: Yes
  Cmax > 2500 ng/dL none of patients: Yes
[11]
  Cavg >300 ng/dL ≥75% patients: Yes
  Cavg >300 ng/dL ≥80% patients: No
  Cmax > 1500 ng/dL <15% patients: Yes
  Cmax > 1500 ng/dL <20% patients: Yes
  Cmax > 1800 ng/dL <5% patients: Yes
  Cmax > 1800 ng/dL <10% patients: Yes
  Cmax > 2500 ng/dL <2% patients: Yes
  Cmax > 2500 ng/dL none of patients: Yes
[12]
  Cavg >300 ng/dL ≥75% patients: Yes
  Cavg >300 ng/dL ≥80% patients: Yes
  Cmax > 1500 ng/dL <15% patients: Yes
  Cmax > 1500 ng/dL <20% patients: Yes
  Cmax > 1800 ng/dL <5% patients: Yes
  Cmax > 1800 ng/dL <10% patients: Yes
  Cmax > 2500 ng/dL <2% patients: Yes
  Cmax > 2500 ng/dL none of patients: Yes
[13]
  Cavg >300 ng/dL ≥75% patients: Yes
  Cavg >300 ng/dL ≥80% patients: Yes
  Cmax > 1500 ng/dL <15% patients: Yes
  Cmax > 1500 ng/dL <20% patients: Yes
  Cmax > 1800 ng/dL <5% patients: Yes
  Cmax > 1800 ng/dL <10% patients: Yes
  Cmax > 2500 ng/dL <2% patients: Yes
  Cmax > 2500 ng/dL none of patients: Yes
[14]
  Cavg >300 ng/dL ≥75% patients: Yes
  Cavg >300 ng/dL ≥80% patients: Yes
  Cmax > 1500 ng/dL <15% patients: No
  Cmax > 1500 ng/dL <20% patients: Yes
  Cmax > 1800 ng/dL <5% patients: Yes
  Cmax > 1800 ng/dL <10% patients: Yes
  Cmax > 2500 ng/dL <2% patients: Yes
  Cmax > 2500 ng/dL none of patients: Yes
[15]
  Cavg >300 ng/dL ≥75% patients: Yes
  Cavg >300 ng/dL ≥80% patients: Yes
  Cmax > 1500 ng/dL <15% patients: No
  Cmax > 1500 ng/dL <20% patients: Yes
  Cmax > 1800 ng/dL <5% patients: No
  Cmax > 1800 ng/dL <10% patients: Yes
  Cmax > 2500 ng/dL <2% patients: Yes
  Cmax > 2500 ng/dL none of patients: No
[16]
  Cavg >300 ng/dL ≥75% patients: Yes
  Cavg >300 ng/dL ≥80% patients: Yes
  Cmax > 1500 ng/dL <15% patients: No
  Cmax > 1500 ng/dL <20% patients: No
  Cmax > 1800 ng/dL <5% patients: No
  Cmax > 1800 ng/dL <10% patients: Yes
  Cmax > 2500 ng/dL <2% patients: Yes
  Cmax > 2500 ng/dL none of patients: No
[17]
  Cavg >300 ng/dL ≥75% patients: No
  Cavg >300 ng/dL ≥80% patients: No
  Cmax > 1500 ng/dL <15% patients: Yes
  Cmax > 1500 ng/dL <20% patients: Yes
  Cmax > 1800 ng/dL <5% patients: Yes
  Cmax > 1800 ng/dL <10% patients: Yes
  Cmax > 2500 ng/dL <2% patients: Yes
  Cmax > 2500 ng/dL none of patients: Yes
[18]
  Cavg >300 ng/dL ≥75% patients: No
  Cavg >300 ng/dL ≥80% patients: No
  Cmax > 1500 ng/dL <15% patients: Yes
  Cmax > 1500 ng/dL <20% patients: Yes
  Cmax > 1800 ng/dL <5% patients: No
  Cmax > 1800 ng/dL <10% patients: Yes
  Cmax > 2500 ng/dL <2% patients: Yes
  Cmax > 2500 ng/dL none of patients: No
[19]
  Cavg >300 ng/dL ≥75% patients: No
  Cavg >300 ng/dL ≥80% patients: No
  Cmax > 1500 ng/dL <15% patients: Yes
  Cmax > 1500 ng/dL <20% patients: Yes
  Cmax > 1800 ng/dL <5% patients: Yes
  Cmax > 1800 ng/dL <10% patients: Yes
  Cmax > 2500 ng/dL <2% patients: Yes
  Cmax > 2500 ng/dL none of patients: Yes
[20]
  Cavg >300 ng/dL ≥75% patients: Yes
  Cavg >300 ng/dL ≥80% patients: No
  Cmax > 1500 ng/dL <15% patients: Yes
  Cmax > 1500 ng/dL <20% patients: Yes
  Cmax > 1800 ng/dL <5% patients: Yes
  Cmax > 1800 ng/dL <10% patients: Yes
  Cmax > 2500 ng/dL <2% patients: Yes
  Cmax > 2500 ng/dL none of patients: Yes
[21]
  Cavg >300 ng/dL ≥75% patients: Yes
  Cavg >300 ng/dL ≥80% patients: Yes
  Cmax > 1500 ng/dL <15% patients: No
  Cmax > 1500 ng/dL <20% patients: No
  Cmax > 1800 ng/dL <5% patients: No
  Cmax > 1800 ng/dL <10% patients: Yes
  Cmax > 2500 ng/dL <2% patients: Yes
  Cmax > 2500 ng/dL none of patients: No
[22]
  Cavg >300 ng/dL ≥75% patients: No
  Cavg >300 ng/dL ≥80% patients: No
  Cmax > 1500 ng/dL <15% patients: No
  Cmax > 1500 ng/dL <20% patients: Yes
  Cmax > 1800 ng/dL <5% patients: No
  Cmax > 1800 ng/dL <10% patients: Yes
[23]
  Cavg >300 ng/dL ≥75% patients: Yes
  Cavg >300 ng/dL ≥80% patients: Yes
[24]
  Cavg >300 ng/dL ≥75% patients: Yes
  Cavg >300 ng/dL ≥80% patients: Yes
Fixed dose, 430 mg TU daily (215 mg BID-equal) to 480 mg TU daily (240 mg BID-equal)
  US FDA T level targets for safety and efficacy: can satisfy US FDA T level targets for safety and efficacy without titration
